Usually fold induction stands for the ratio of treated to control signal.

This assay is described as follows: Functional Dkk1-LRP5-TCF-Luciferase Assay in U2OS Cells (table columns: A=MAX FOLD Induction/DMSO CONTROL; B=fold induction @ 2.0 uM; C=fold induction @ 20.0 uM). Type of assay: cell-based, Human. The conditions noted are these: Homo sapiens, U2OS; for fold induction at 2 µM: 2.0 uM compound; for fold induction at 20 µM: 20.0 uM compound. On the procedure:
Biological Evaluation—Functional Dkk1-LRP5-TCF-Luciferase Assay in U2OS Cells
U2OS Human Bone derived cells (Osteosarcoma) are grown in McCoy's 5A Medium (Modified), with L-glutamine (GIBCO Cat No. 16600-082)+1% Pen-Strep+5% FBS) plated at 1×10^7 cells/T175 cm flask. The next day, the cells are co-transfected overnight with the following plasmids: (a) Test reporter (16×TCF-TK-FireFly-Luci), (b) Internal Control Reporter (TK-Renilla-Luci), (c) Wnt3a and (d) Dkk1. GIBCO's Lipofectamine 2000 and OptiMEM were used for the transfection. After a minimum of 4 hr of transfection at 37° C., the plasmid-transfected cells are trypsinized, counted, and suspended in freezing medium (95% FBS+5% DMSO). The reporter cells are frozen at 1×10^7/ml concentrations, aliquoted into 0.5 ml or 2.5 ml/tube and stored at −70° C.
The following day, test compounds are added under HTS setup by Plate Track into 384 well plates (white, TC treated, Falcon plate) such that the final concentration of the compounds in 20 μL/well cell will be 5 μg/ml (final concentration of DMSO=0.25% and final compound concentration=20 μM). Vials of frozen reporter cells are thawed by warming the vial in a 37° C. water bath for 60-120 seconds with some shaking until the cells formed a suspension. The thawed cells are transferred into a cold 50 ml (or larger) tube and mixed well by gentle pipetting. The appropriate amount of cold Phenol Red Free RPMI medium-1640 (GIBCO, Cat # 11835-030) with L-glutamine is added, both with ˜5% FBS (GIBCO-BRL, Cat. # 16000-044), so that 20 μl of the final cell suspension will contain ˜5,000 cells. The cell dilution is done such that the final concentration of FBS was ˜5%. Diluted cells (20 μl) are added into each well in a 384 well plate. The plate is incubated at 37° C. under 5% CO2 for ˜20 h. Bright-Glo substrate, 2.5 μl/well is added, and the Fire Fly Luciferase is measured using VLUX (60 second exposure) immediately after the substrate was added. Test compounds are dissolved in DMSO (100%) and added to specified wells. Raw luciferase signal data obtained as relative luminescence units (RLUs) for the test compounds are normalized to the signal of the mean of the sample reporter cell plate with DMSO.
Active compounds have TCF-luciferase ratios of 2.5 fold or greater over DMSO. All compounds show a signal increase of at least 10% compared to a signal with only DMSO added.
A=MAX FOLD Induction/DMSO CONTROL
B=TCF ACTIVITY/DMSO CONTROL Fold induction @ 2.0 uM C=TCF ACTIVITY/DMSO CONTROL Fold induction @ 20.0 uM

Regarding `Cc1ccc(-c2nc3c(-c4ccc5ccccc5c4)ccnc3n2C2CCNCC2)c(C)c1` [2-(2,4-dimethylphenyl)-7-(2-naphthyl)-3-piperidin-4-yl-3H-imidazo[4,5-b]pyridine], the fold induction at 2 µM came to 1.3.

For the compound `Fc1cccc(F)c1-c1nc2c(-c3ccc4ccccc4c3)ccnc2n1C1CCNCC1` [2-(2,6-difluorophenyl)-7-(2-naphthyl)-3-piperidin-4-yl-3H-imidazo[4,5-b]pyridine], the fold induction at 2 µM was determined as 1.11.

Take `Brc1ccccc1-c1nc2c(-c3ccc4ccccc4c3)ccnc2n1C1CCNCC1` [2-(2-bromophenyl)-7-(2-naphthyl)-3-piperidin-4-yl-3H-imidazo[4,5-b]pyridine]: the fold induction at 2 µM was determined as 1.6.

As for `Cc1cn(-c2ccccc2)c(Cl)c1-c1nc2c(-c3ccc4ccccc4c3)ccnc2n1C1CCNCC1` [2-(2-chloro-4-methyl-1-phenyl-1H-pyrrol-3-yl)-7-(2-naphthyl)-3-piperidin-4-yl-3H-imidazo[4,5-b]pyridine], the fold induction at 2 µM came out at 1.48.

For the compound `Clc1ccccc1-c1nc2c(-c3ccc4ccccc4c3)ccnc2n1C1CCNCC1` [2-(2-chlorophenyl)-7-(2-naphthyl)-3-piperidin-4-yl-3H-imidazo[4,5-b]pyridine], the fold induction at 2 µM worked out at 1.36.

For `Fc1ccccc1-c1nc2cc(-c3ccc4ccccc4c3)cnc2n1C1CCNCC1` [2-(2-fluorophenyl)-6-(2-naphthyl)-3-piperidin-4-yl-3H-imidazo[4,5-b]pyridine], the fold induction at 2 µM turned out to be 1.29.

For the compound `Fc1ccccc1-c1nc2c(-c3ccc4ccccc4c3)ccnc2n1C1CCNCC1` [2-(2-fluorophenyl)-7-(2-naphthyl)-3-piperidin-4-yl-3H-imidazo[4,5-b]pyridine], the fold induction at 2 µM stood at 1.29.

As to `c1coc(-c2nc3cc(-c4ccc5ccccc5c4)cnc3n2C2CCNCC2)c1` [2-(2-furyl)-6-(2-naphthyl)-3-piperidin-4-yl-3H-imidazo[4,5-b]pyridine], the fold induction at 2 µM was found to be 1.27 and the fold induction at 20 µM was determined as 0.01.

In the case of `c1coc(-c2nc3c(-c4ccc5ccccc5c4)ccnc3n2C2CCNCC2)c1` [2-(2-furyl)-7-(2-naphthyl)-3-piperidin-4-yl-3H-imidazo[4,5-b]pyridine], the fold induction at 2 µM turned out to be 1.82 and the fold induction at 20 µM turned out to be 0.01.

`COc1ccc2ccccc2c1-c1nc2c(-c3ccc4ccccc4c3)ccnc2n1C1CCNCC1` [2-(2-methoxy-1-naphthyl)-7-(2-naphthyl)-3-piperidin-4-yl-3H-imidazo[4,5-b]pyridine]: the fold induction at 2 µM amounted to 1.17.

For the compound `COc1ccccc1-c1nc2cc(-c3ccc4ccccc4c3)cnc2n1C1CCNCC1` [2-(2-methoxyphenyl)-6-(2-naphthyl)-3-piperidin-4-yl-3H-imidazo[4,5-b]pyridine], the fold induction at 2 µM was 1.37 and the fold induction at 20 µM stood at 0.01.

On to `COc1ccccc1-c1nc2c(-c3ccc4ccccc4c3)ccnc2n1C1CCNCC1` [2-(2-methoxyphenyl)-7-(2-naphthyl)-3-piperidin-4-yl-3H-imidazo[4,5-b]pyridine], for which the fold induction at 2 µM was 1.99.

As to `COc1ncccc1-c1nc2c(-c3ccc4ccccc4c3)ccnc2n1C1CCNCC1` [2-(2-methoxypyridin-3-yl)-7-(2-naphthyl)-3-piperidin-4-yl-3H-imidazo[4,5-b]pyridine], the fold induction at 2 µM came to 1.5.

For the compound `Cc1nc(-c2nc3c(-c4ccc5ccccc5c4)ccnc3n2C2CCNCC2)c[nH]1` [2-(2-methyl-1H-imidazol-4-yl)-7-(2-naphthyl)-3-piperidin-4-yl-3H-imidazo[4,5-b]pyridine], the fold induction at 2 µM is 1.04 and the fold induction at 20 µM worked out at 0.02.

Regarding `Clc1cncc(Cl)c1-c1nc2c(-c3ccc4ccccc4c3)ccnc2n1C1CCNCC1` [2-(3,5-dichloropyridin-4-yl)-7-(2-naphthyl)-3-piperidin-4-yl-3H-imidazo[4,5-b]pyridine], the fold induction at 2 µM is 1.95 and the fold induction at 20 µM is 0.29.

Regarding `Brc1cccc(-c2nc3c(-c4ccc5ccccc5c4)ccnc3n2C2CCNCC2)c1` [2-(3-bromophenyl)-7-(2-naphthyl)-3-piperidin-4-yl-3H-imidazo[4,5-b]pyridine], the fold induction at 2 µM came to 1.52.

Consider `Clc1cccc(-c2nc3cc(-c4ccc5ccccc5c4)cnc3n2C2CCNCC2)c1` [2-(3-chlorophenyl)-6-(2-naphthyl)-3-piperidin-4-yl-3H-imidazo[4,5-b]pyridine], for which the fold induction at 2 µM worked out at 0.98.

For the compound `Clc1cccc(-c2nc3c(-c4ccc5ccccc5c4)ccnc3n2C2CCNCC2)c1` [2-(3-chlorophenyl)-7-(2-naphthyl)-3-piperidin-4-yl-3H-imidazo[4,5-b]pyridine], the fold induction at 2 µM was 1.5.

Turning to `Fc1cccc(-c2nc3c(-c4ccc5ccccc5c4)ccnc3n2C2CCNCC2)c1` [2-(3-fluorophenyl)-7-(2-naphthyl)-3-piperidin-4-yl-3H-imidazo[4,5-b]pyridine], the fold induction at 2 µM was determined as 1.55.

On to `COc1cccc(-c2nc3cc(-c4ccc5ccccc5c4)cnc3n2C2CCNCC2)c1` [2-(3-methoxyphenyl)-6-(2-naphthyl)-3-piperidin-4-yl-3H-imidazo[4,5-b]pyridine], for which the fold induction at 2 µM turned out to be 0.97.

With `COc1cccc(-c2nc3c(-c4ccc5ccccc5c4)ccnc3n2C2CCNCC2)c1` [2-(3-methoxyphenyl)-7-(2-naphthyl)-3-piperidin-4-yl-3H-imidazo[4,5-b]pyridine], the fold induction at 2 µM was 1.25.

With `Cc1cccc(-c2nc3cc(-c4ccc5ccccc5c4)cnc3n2C2CCNCC2)c1` [2-(3-methylphenyl)-6-(2-naphthyl)-3-piperidin-4-yl-3H-imidazo[4,5-b]pyridine], the fold induction at 2 µM came out at 1.33.

Consider `Cc1cccc(-c2nc3c(-c4ccc5ccccc5c4)ccnc3n2C2CCNCC2)c1` [2-(3-methylphenyl)-7-(2-naphthyl)-3-piperidin-4-yl-3H-imidazo[4,5-b]pyridine], for which the fold induction at 2 µM came to 1.91.

Regarding `Cc1cc(-c2nc3c(-c4ccc5ccccc5c4)ccnc3n2C2CCNCC2)oc1C` [2-(4,5-dimethyl-2-furyl)-7-(2-naphthyl)-3-piperidin-4-yl-3H-imidazo[4,5-b]pyridine], the fold induction at 2 µM amounted to 1.54.

With `Brc1ccc(-c2nc3c(-c4ccc5ccccc5c4)ccnc3n2C2CCNCC2)cc1` [2-(4-bromophenyl)-7-(2-naphthyl)-3-piperidin-4-yl-3H-imidazo[4,5-b]pyridine], the fold induction at 2 µM worked out at 1.23.

With `Clc1ccc(-c2nc3c(-c4ccc5ccccc5c4)ccnc3n2C2CCNCC2)cc1` [2-(4-chlorophenyl)-7-(2-naphthyl)-3-piperidin-4-yl-3H-imidazo[4,5-b]pyridine], the fold induction at 2 µM came to 1.21.

For `CC(C)c1ccc(-c2nc3cc(-c4ccc5ccccc5c4)cnc3n2C2CCNCC2)cc1` [2-(4-isopropylphenyl)-6-(2-naphthyl)-3-piperidin-4-yl-3H-imidazo[4,5-b]pyridine], the fold induction at 2 µM stood at 1.14.

Regarding `CC(C)c1ccc(-c2nc3c(-c4ccc5ccccc5c4)ccnc3n2C2CCNCC2)cc1` [2-(4-isopropylphenyl)-7-(2-naphthyl)-3-piperidin-4-yl-3H-imidazo[4,5-b]pyridine], the fold induction at 2 µM was determined as 1.03.

`Cc1nc[nH]c1-c1nc2c(-c3ccc4ccccc4c3)ccnc2n1C1CCNCC1` [2-(4-methyl-1H-imidazol-5-yl)-7-(2-naphthyl)-3-piperidin-4-yl-3H-imidazo[4,5-b]pyridine]: the fold induction at 2 µM was found to be 1.31.

As to `Cc1ccc(-c2nc3cc(-c4ccc5ccccc5c4)cnc3n2C2CCNCC2)cc1` [2-(4-methylphenyl)-6-(2-naphthyl)-3-piperidin-4-yl-3H-imidazo[4,5-b]pyridine], the fold induction at 2 µM came to 1.

`Cc1ccc(-c2nc3c(-c4ccc5ccccc5c4)ccnc3n2C2CCNCC2)cc1` [2-(4-methylphenyl)-7-(2-naphthyl)-3-piperidin-4-yl-3H-imidazo[4,5-b]pyridine]: the fold induction at 2 µM came out at 1.9.

For `O=[N+]([O-])c1cc(-c2nc3cc(-c4ccc5ccccc5c4)cnc3n2C2CCNCC2)ccc1N1CCOCC1` [2-(4-morpholin-4-yl-3-nitrophenyl)-6-(2-naphthyl)-3-piperidin-4-yl-3H-imidazo[4,5-b]pyridine], the fold induction at 2 µM was determined as 1.01.
